Experimental data reported in ChEMBL document CHEMBL5257023, “Identification of leads for antiproliferative activity on MDA-MB-435 human breast cancer cells through pharmacophore and CYP1A1-mediated metabolism” (Eur J Med Chem, 2016).

Legend:
NCI-H226 [1] = experiment: Anticancer activity against human NCI-H226 cells assessed as cell growth at 0.1 uM incubated for 48 hrs by SRB assay; type: functional; details: read-out: Activity
MDA-MB-468 [2] = experiment: Anticancer activity against human MDA-MB-468 cells assessed as cell growth at 0.1 uM incubated for 48 hrs by SRB assay; type: functional; details: read-out: Activity
MCF7 [3] = experiment: Anticancer activity against human MCF7 cells assessed as inhibition of cell growth incubated for 48 hrs by SRB assay; type: functional
MDA-MB-435 [4] = experiment: Anticancer activity against human MDA-MB-435 cells assessed as cell growth at 100 uM incubated for 48 hrs by SRB assay; type: functional; details: read-out: Activity
NCI-H226 [5] = experiment: Anticancer activity against human NCI-H226 cells assessed as cell growth at 1 uM incubated for 48 hrs by SRB assay; type: functional; details: read-out: Activity
Cytochrome P450 1A1 = target: T1, Cytochrome P450 1A1 (Homo sapiens, UniProt P04798); experiment: Inhibition of recombinant CYP1A1 (unknown origin) assessed as decrease in EROD activity using 7-ethoxyresorufin as substrate upto 100 uM incubated for 15 mins by resorufin dye based spectrofluorimetry; type: ADME; details: recombinant enzyme, 0.25 h
T1 sequence (P04798 whole entry): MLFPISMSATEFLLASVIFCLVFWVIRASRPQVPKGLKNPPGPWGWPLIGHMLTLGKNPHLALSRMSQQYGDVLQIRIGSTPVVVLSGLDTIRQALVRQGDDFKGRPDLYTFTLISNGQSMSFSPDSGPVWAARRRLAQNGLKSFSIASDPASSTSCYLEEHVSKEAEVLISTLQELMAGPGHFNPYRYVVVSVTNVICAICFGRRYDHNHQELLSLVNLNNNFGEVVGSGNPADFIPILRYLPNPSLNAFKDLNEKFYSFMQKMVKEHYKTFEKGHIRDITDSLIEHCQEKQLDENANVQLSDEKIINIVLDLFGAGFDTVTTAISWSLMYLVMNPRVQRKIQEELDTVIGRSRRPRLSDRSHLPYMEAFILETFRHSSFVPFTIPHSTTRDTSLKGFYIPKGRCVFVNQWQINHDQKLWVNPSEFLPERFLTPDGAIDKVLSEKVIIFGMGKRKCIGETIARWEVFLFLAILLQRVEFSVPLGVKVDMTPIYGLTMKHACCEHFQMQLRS

MDA-MB-468 [6] = experiment: Anticancer activity against human MDA-MB-468 cells assessed as inhibition of cell growth incubated for 48 hrs by SRB assay; type: functional
CYP1A1 [7] = target: T2, CYP1A1 (Homo sapiens, UniProt P04798); experiment: Inhibition of recombinant CYP1A1 (unknown origin) assessed as residual enzyme activity using 7-ethoxyresorufin as substrate at 1 uM incubated for 15 mins by resorufin dye based spectrofluorimetry (reference value: 100%); type: ADME; details: recombinant CYP1A1, probe 7-ethoxyresorufin, read-out: Activity
T2 sequence (P04798 whole entry): T1 sequence (P04798 whole entry)

MCF7 [8] = experiment: Anticancer activity against human MCF7 cells assessed as cell growth at 1 uM incubated for 48 hrs by SRB assay; type: functional; details: read-out: Activity
MDA-MB-468 [9] = experiment: Anticancer activity against human MDA-MB-468 cells assessed as cell growth at 100 uM incubated for 48 hrs by SRB assay; type: functional; details: read-out: Activity
CYP1A1 [10] = target: T2, CYP1A1; experiment: Inhibition of recombinant CYP1A1 (unknown origin) assessed as residual enzyme activity using 7-ethoxyresorufin as substrate at 0.1 uM incubated for 15 mins by resorufin dye based spectrofluorimetry (reference value: 100%); type: ADME; details: recombinant CYP1A1, probe 7-ethoxyresorufin, read-out: Activity
MDA-MB-435 [11] = experiment: Anticancer activity against human MDA-MB-435 cells assessed as inhibition of cell growth incubated for 48 hrs by SRB assay; type: functional
NCI-H226 [12] = experiment: Anticancer activity against human NCI-H226 cells assessed as inhibition of cell growth incubated for 48 hrs by SRB assay; type: functional
NCI-H226 [13] = experiment: Anticancer activity against human NCI-H226 cells assessed as cell growth at 100 uM incubated for 48 hrs by SRB assay; type: functional; details: read-out: Activity
MCF7 [14] = experiment: Anticancer activity against human MCF7 cells assessed as cell growth at 0.1 uM incubated for 48 hrs by SRB assay; type: functional; details: read-out: Activity
MDA-MB-435 [15] = experiment: Anticancer activity against human MDA-MB-435 cells assessed as cell growth at 0.1 uM incubated for 48 hrs by SRB assay; type: functional; details: read-out: Activity
NCI-H226 [16] = experiment: Anticancer activity against human NCI-H226 cells assessed as cell growth at 10 uM incubated for 48 hrs by SRB assay; type: functional; details: read-out: Activity
CYP1A1 [17] = target: T2, CYP1A1; experiment: Inhibition of recombinant CYP1A1 (unknown origin) assessed as residual enzyme activity using 7-ethoxyresorufin as substrate at 100 uM incubated for 15 mins by resorufin dye based spectrofluorimetry (reference value: 100%); type: ADME; details: recombinant CYP1A1, probe 7-ethoxyresorufin, read-out: Activity
CYP1A1 [18] = target: T2, CYP1A1; experiment: Inhibition of recombinant CYP1A1 (unknown origin) assessed as residual enzyme activity using 7-ethoxyresorufin as substrate at 0.01 uM incubated for 15 mins by resorufin dye based spectrofluorimetry (reference value: 100%); type: ADME; details: recombinant CYP1A1, probe 7-ethoxyresorufin, read-out: Activity
CYP1A1 [19] = target: T2, CYP1A1; experiment: Inhibition of recombinant CYP1A1 (unknown origin) assessed as residual enzyme activity using 7-ethoxyresorufin as substrate at 50 uM incubated for 15 mins by resorufin dye based spectrofluorimetry (reference value: 100%); type: ADME; details: recombinant CYP1A1, probe 7-ethoxyresorufin, read-out: Activity
CYP1A1 [20] = target: T2, CYP1A1; experiment: Inhibition of recombinant CYP1A1 (unknown origin) assessed as residual enzyme activity using 7-ethoxyresorufin as substrate at 10 uM incubated for 15 mins by resorufin dye based spectrofluorimetry (reference value: 100%); type: ADME; details: recombinant CYP1A1, probe 7-ethoxyresorufin, read-out: Activity
MCF7 [21] = experiment: Anticancer activity against human MCF7 cells assessed as cell growth at 100 uM incubated for 48 hrs by SRB assay; type: functional; details: read-out: Activity
MDA-MB-435 [22] = experiment: Anticancer activity against human MDA-MB-435 cells assessed as cell growth at 1 uM incubated for 48 hrs by SRB assay; type: functional; details: read-out: Activity
MDA-MB-435 [23] = experiment: Anticancer activity against human MDA-MB-435 cells assessed as cell growth at 10 uM incubated for 48 hrs by SRB assay; type: functional; details: read-out: Activity
MDA-MB-468 [24] = experiment: Anticancer activity against human MDA-MB-468 cells assessed as cell growth at 10 uM incubated for 48 hrs by SRB assay; type: functional; details: read-out: Activity
MCF7 [25] = experiment: Anticancer activity against human MCF7 cells assessed as cell growth at 10 uM incubated for 48 hrs by SRB assay; type: functional; details: read-out: Activity
MDA-MB-468 [26] = experiment: Anticancer activity against human MDA-MB-468 cells assessed as cell growth at 1 uM incubated for 48 hrs by SRB assay; type: functional; details: read-out: Activity
[27] = read-out: LC50 (the source's name)

## Cc1cc(C)n(C(=O)CNc2ccccc2Cl)n1
NCI-H226 [1]
  growth at 0.1 µM: 82.5%
MDA-MB-468 [2]
  growth at 0.1 µM: 100%
MCF7 [3]
  GI50: 61.1 µM
  TGI: > 100 µM
MCF7 [3]; [27]
  CC50: > 100 µM
MDA-MB-435 [4]
  growth at 100 µM: 85.9%
NCI-H226 [5]
  growth at 1 µM: 73.4%
Cytochrome P450 1A1
  inhibition (INH): Not Active
MDA-MB-468 [6]
  GI50: 89.3 µM
  TGI: > 100 µM
MDA-MB-468 [6]; [27]
  CC50: > 100 µM
CYP1A1 [7]
  activity at 0.25 h, 1 µM: 99.9%
MCF7 [8]
  growth at 1 µM: 82.9%
MDA-MB-468 [9]
  growth at 100 µM: 43.3%
CYP1A1 [10]
  activity at 0.25 h, 0.1 µM: 100%
MDA-MB-435 [11]
  GI50: > 100 µM
  LC50: > 100 µM
  TGI: > 100 µM
NCI-H226 [12]
  GI50: > 100 µM
  LC50 (concentration killing 50% of cells): > 100 µM
  TGI: > 100 µM
NCI-H226 [13]
  growth at 100 µM: 63.6%
MCF7 [14]
  growth at 0.1 µM: 89.6%
MDA-MB-435 [15]
  growth at 0.1 µM: 100%
NCI-H226 [16]
  growth at 10 µM: 71.5%
CYP1A1 [17]
  activity at 0.25 h, 100 µM: 99.3%
CYP1A1 [18]
  activity at 0.25 h, 0.01 µM: 101%
CYP1A1 [19]
  activity at 0.25 h, 50 µM: 104%
CYP1A1 [20]
  activity at 0.25 h, 10 µM: 98.2%
MCF7 [21]
  growth at 100 µM: 26.7%
MDA-MB-435 [22]
  growth at 1 µM: 100%
MDA-MB-435 [23]
  growth at 10 µM: 100%
MDA-MB-468 [24]
  growth at 10 µM: 94.7%
MCF7 [25]
  growth at 10 µM: 77.2%
MDA-MB-468 [26]
  growth at 1 µM: 100%
